Data published in US20230013227A1, “ARYL-ANILINE AND HETEROARYL-ANILINE COMPOUNDS FOR TREATMENT OF BIRTHMARKS” (NFlection Therapeutics, Inc., priority 2018, published 2023).
Where two headings read alike, the source gives them in different places.

How the values were obtained:
MEK1 = target: T1, MEK1 (Homo sapiens, UniProt Q02750); assay: MEK Inhibition Assay-1 (Example 2): 33P-ATP, P81 filter-binding kinase assay; settings: Example 2, read-out: Assay 1: biochemical MEK IC50
T1 construct: N-terminal His-tagged recombinant human full length protein; purchased Invitrogen PV3303; host or cells: insect cells
T1 sequence (Q02750 whole entry): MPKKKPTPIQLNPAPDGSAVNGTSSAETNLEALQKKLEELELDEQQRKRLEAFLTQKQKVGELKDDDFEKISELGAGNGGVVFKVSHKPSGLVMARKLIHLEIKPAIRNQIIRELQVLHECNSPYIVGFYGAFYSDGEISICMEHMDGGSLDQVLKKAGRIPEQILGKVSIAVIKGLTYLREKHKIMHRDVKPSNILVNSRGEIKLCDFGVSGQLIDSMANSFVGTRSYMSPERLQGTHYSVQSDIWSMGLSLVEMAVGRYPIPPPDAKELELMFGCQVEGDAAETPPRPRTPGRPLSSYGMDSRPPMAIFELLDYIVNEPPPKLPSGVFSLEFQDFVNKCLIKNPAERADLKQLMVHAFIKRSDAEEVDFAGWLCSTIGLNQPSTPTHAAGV
Experimental: The following procedure can be used to measure biochemical activity. MEK1 inhibitory activity of compounds were tested using the following procedure. […] Nat Biotechnoi 2011, 29(11), 1039-45.
• Reaction buffer: 20 mM Hepes (pH 7.5), 10 mM MgCl2, 1 mM EGTA, 0.02% Brij35, 0.02 mg/mL BSA, 0.1 mM Na3VO4, 2 mM DTT, 1% DMSO • Enzyme: MEK1, Invitrogen cat #PV3303 • N-terminal His-tagged recombinant human full length protein, expressed in insect cells. Activated in vitro by RAF1. MW=49.2 kDa, GenBank Accession No. NP_002746. • Substrate: 5 μM ERK2 (K52R), • Kinase-dead mutant, (GenBank Accession No. NM_0011949), aa2-358 with N-terminal His6 tag, MW=43.63 kDa, expressed in E. coli.
The substrate was prepared in freshly prepared Reaction Buffer. The kinase was delivered into the substrate solution and gently mixed. Test compounds were delivered in 100% DMSO into the kinase reaction mixture by Acoustic technology (Echo550; nanoliter range), and incubated for 20 min at room temperature. ^33P-ATP was delivered into the reaction mixture to initiate the reaction. The reaction mixture was incubated for 2 hours at room temperature. Kinase activity was detected by P81 filter-binding method.

MAP2K1 (MEK1) = target: T2, MAP2K1 (MEK1) (Homo sapiens, UniProt Q02750); assay: MEK Inhibition Assay-2 (Example 3): Z'-LYTE biochemical assay; settings: Table 6; procedure of Example 3; read-out: IC50 against MEK1
T2 construct: purchased ThermoFisher
T2 sequence (Q02750 whole entry): as above
Experimental: MEK1 inhibitory activity of compounds were tested using the following procedure (protocol available at thermofisher.com/content/dam/LifeTech/migration/files/drug-discovery/pdfs.par.60256.file.dat/20130430%20ssbk%20customer%20protocol%20and%20assay%20conditions.pdf). The Z′-LYTE biochemical assay (ThermoFisher) employs a fluorescence-based, coupled-enzyme format and is based on the differential sensitivity of phosphorylated and non-phosphorylated peptides to proteolytic cleavage.
Test compounds in 100% DMSO were screened in 1% DMSO (final) in the well. For 10 point titrations, 3-fold serial dilutions are conducted from the starting concentration of 30 μM.
After the 1 hour incubation, 5 μL of a 1:1024 dilution of Development Reagent A (available from Invitrogen, catalog no. PV3295) was added.
ATP solutions were diluted to a 4× working concentration in Kinase Buffer (50 mM HEPES pH 7.5, 0.01% BRIJ-35, 10 mM MgCl2, 1 mM EGTA). ATP Km apparent was previously determined using a Z′-LYTE assay. The Development Reagent was diluted in Development Buffer (available from Invitrogen, catalog no. P3127).
Assay Protocol: 2.5 μL of 4× test compound or 100 nL of 100× Test Compound plus 2.4 μL Kinase Buffer, 5 μL of the 2× Peptide/Kinase Mixture, 2.5 μL of 4×ATP Solution were added to the plates and placed on a shake plate for 30-seconds. The kinase reaction was allowed to proceed for 60-minute at room temperature, before 5 μL of Development Reagent Solution was added, and the mixture agitated for 30-seconds on a shake plate. The mixture was incubated for 60-minute at room temperature. Fluorescence was measured using a plate reader and the data were analyzed.
This control yielded 100% cleaved peptide in the Development Reaction. The 100% Phosphorylation Control, which consisted of a synthetically phosphorylated peptide of the same sequence as the peptide substrate, was designed to allow for the calculation of percent phosphorylation. This control yielded a very low percentage of cleaved peptide in the Development Reaction. The 0% Phosphorylation and 100% Phosphorylation Controls allow for the calculation of the percent phosphorylation achieved in a specific reaction well.
The minimum emission ratio in a screen was established by the 0% Inhibition Control, which contained active kinase. This control was designed to produce a 10-50% phosphorylated peptide in the Kinase Reaction. Cascade assays may produce up to 70% phosphorylated peptide.
A known inhibitor control standard curve, 10 point titration, was run for each individual kinase on the same plate as the kinase to ensure the kinase was inhibited within an expected IC50 range previously determined.
The following controls are prepared for each concentration of Test Compound assayed. […] The expected value for a non-interfering compound should be 100%. Any value outside of 90% to 110% was flagged. […] The expected value for a non-fluorescence compound should be 0%. Any value >20% was flagged.
The data in Table A was calculated. XLfit from IDBS was used. The dose response curve was curve fit to model number 205 (sigmoidal dose-response model).

[1] = Table 7, compounds of formula (I)
[2] = Table 10, compounds of formula (IV)

Structure (SMILES) | IC50 (MEK1; [1]) [nM] | IC50 (MAP2K1 (MEK1)) [nM] | IC50 (MEK1; [2]) [nM]
CONC(=O)c1ccc(C#N)cc1Nc1ccc(I)cc1F [Compound 1.007] | 150 to 1500 | 150 to 1500 | 
N#Cc1ccc(C(=O)NOCCO)c(Nc2ccc(I)cc2F)c1F [Compound 1.030] | ≤ 150 | ≤ 150 | 
Cc1cc(I)ccc1Nc1cc(C#N)ccc1C(=O)NOCCO [Compound 1.011] |  | 150 to 1500 | 
Cc1cc(I)ccc1Nc1cc(C#N)ccc1C(=O)NOCC1CC1 [Compound 1.013] |  | 150 to 1500 | 
CCONC(=O)c1ccc(C#N)cc1Nc1ccc(I)cc1F [Compound 1.008] | ≤ 150 | 150 to 1500 | 
CCCONC(=O)c1ccc(C#N)cc1Nc1ccc(I)cc1F [Compound 1.009] | 150 to 1500 | 150 to 1500 | 
N#Cc1ccc(C(=O)NOCC2CC2)c(Nc2ccc(I)cc2F)c1F [Compound 1.031] | ≤ 150 | ≤ 150 | 
N#Cc1ccc(C(=O)NOCCN)c(Nc2ccc(I)cc2F)c1 [Compound 1.018] |  | 150 to 1500 | 
N#Cc1ccc(C(=O)NOCC2CC2)c(Nc2ccc(I)cc2F)c1 [Compound 1.012] |  | 150 to 1500 | 
COC(=O)CCONC(=O)c1ccc(C#N)cc1Nc1ccc(I)cc1F [Compound 1.022] |  | > 1500 | 
N#Cc1ccc(C(=O)O)c(Nc2ccc(I)cc2F)c1 [Compound 1.001] |  | 150 to 1500 | 
N#Cc1ccc(C(=O)N2CC(O)C2)c(Nc2ccc(I)cc2F)c1 [Compound 1.002] |  | > 1500 | 
N#Cc1ccc(C(=O)NO)c(Nc2ccc(I)cc2F)c1 [Compound 1.017] |  | ≤ 150 | 
N#Cc1ccc(C(=O)NOCCO)c(Nc2ccc(I)cc2F)c1 [Compound 1.010] | ≤ 150 | ≤ 150 | 

Other lines, results leading:

IC50 (MEK1; [1]) [nM] | IC50 (MAP2K1 (MEK1)) [nM] | IC50 (MEK1; [2]) [nM] | Structure (SMILES)
 | > 1500 |  | COC(=O)Cn1ccc2cncc(Nc3ccc(I)cc3F)c2c1=O [Compound 5.005]
 | 150 to 1500 |  | O=c1c2c(Nc3ccc(I)cc3F)cncc2ccn1OCCO [Compound 5.007]
 | 150 to 1500 |  | O=C1c2c(cncc2Nc2ccc(I)cc2F)CCN1OCCO [Compound 5.010]
 | ≤ 150 |  | O=C1CCCc2c1sc(Nc1ccc(I)cc1F)c2C(=O)NOC[C@H](O)CO [Compound 4.030]
 |  | ≤ 500 | CCONC(=O)c1c(Nc2ccc(I)cc2F)sc(C(C)=O)c1C [Compound 4.022]
 |  | 500 to 1000 | CC(=O)c1sc(Nc2ccc(I)cc2F)c(C(=O)N[C@@H]2CCCNC2)c1C [Compound 4.016]
 | 150 to 1500 | ≤ 500 | CC(=O)c1sc(Nc2ccc(I)cc2F)c(C(=O)NOCCO)c1C [Compound 4.013]
 | 150 to 1500 |  | CC(=O)c1sc(Nc2ccc(I)cc2F)c(C(=O)NC[C@@H](O)CO)c1C [Compound 4.015]
 | 150 to 1500 |  | NCCCn1ccc2cncc(Nc3ccc(I)cc3F)c2c1=O [Compound 5.003]
 | ≤ 150 |  | NCCONC(=O)c1c(Nc2ccc(I)cc2F)sc2c1CCCC2=O [Compound 4.033]
 |  | ≤ 500 | CC(=O)c1sc(Nc2ccc(I)cc2F)c(C(=O)NOCC2CC2)c1C [Compound 4.023]
 | > 1500 |  | O=C(O)Cn1ccc2cncc(Nc3ccc(I)cc3F)c2c1=O [Compound 5.004]
 |  | 5000 to 10000 | CC(=O)c1sc(Nc2ccc(I)cc2F)c(C(=O)N2CC[C@@H](N)C2)c1C [Compound 4.018]
 | 150 to 1500 |  | CC(=O)c1sc(Nc2ccc(I)cc2F)c(C(=O)NC[C@H](O)CO)c1C [Compound 4.014]
 | 150 to 1500 |  | O=C1NCCc2cncc(Nc3ccc(I)cc3F)c21 [Compound 5.012]
 |  | 500 to 1000 | CC(=O)c1sc(Nc2ccc(I)cc2F)c(C(=O)N[C@@H]2CCNC2)c1C [Compound 4.017]
 | 150 to 1500 |  | O=c1c2c(Nc3ccc(I)cc3F)cncc2ccn1O [Compound 5.006]
 | ≤ 150 |  | O=c1c2c(Nc3ccc(I)cc3F)cncc2ccn1C[C@H](O)CO [Compound 5.002]
 | ≤ 150 |  | O=C1CCCc2c1sc(Nc1ccc(I)cc1F)c2C(=O)NC[C@H](O)CO [Compound 4.034]
 | ≤ 150 |  | O=c1c2c(Nc3ccc(I)cc3F)cncc2ccn1C[C@@H](O)CO [Compound 5.001]
 |  | 500 to 1000 | CONC(=O)c1c(Nc2ccc(I)cc2F)sc(C(C)=O)c1C [Compound 4.021]
 | ≤ 150 | ≤ 500 | O=C1CCCc2c1sc(Nc1ccc(I)cc1F)c2C(=O)NOCC1CC1 [Compound 4.032]
 | 150 to 1500 |  | CCON1CCc2cncc(Nc3ccc(I)cc3F)c2C1=O [Compound 5.011, 2-ethoxy-8-((2-fluoro-4-iodophenyl)amino)-3,4-dihydro-2,6-naphthyridin-1(2H)-one]
 |  | 1000 to 5000 | CC(=O)c1sc(Nc2ccc(I)cc2F)c(C(=O)NCC(C)(C)N)c1C [Compound 4.020]
 | ≤ 150 |  | O=C1CCCc2c1sc(Nc1ccc(I)cc1F)c2C(=O)NC[C@@H](O)CO [Compound 4.035]
